# Test system: guinea pig tracheal spiral preparations
# Test: Bronchodilation in vitro; guinea pig tracheal spiral preparations (relaxation of resting tension relative to isoprenaline)
# Settings: fall in tension as percentage of total relaxation evoked by 10⁻³M isoprenaline; cumulative dosing 10⁻⁸-2x10⁻⁵M; resting tension 2g; krebs solution at 37°C; read-out: IC₅₀
# Protocol: Male guinea pigs (300-600g) were stunned by a blow to the head and bled from the carotid artery. The trachea was exposed, dissected free of connective tissue, and transferred to oxygenated krebs solution at 37 °C. Next, spirals (2 per trachea) were prepared by cutting the whole trachea spirally along its longitudinal axis and then dividing this spiral lengthwise. Each preparation was mounted, using silk thread, in a 10ml organ bath filled with krebs solution at 37 °C and bubbled with 5% CO₂ with O₂. The resting tension of the preparations was set at 2g and changes in muscle tension were monitored isometrically by means of a UFI (2oz) force and displacement transducer (Ormed Ltd) connected to a Linseis pen recorder. All preparations were allowed to equilibrate for 60 minutes. During this equilibration period the preparations were washed by upward displacement at 15 minute intervals and, if necessary, the resting tension was readjusted to 2g using a mechanical micromanipulator system.
# Once a steady resting tension had been obtained, the preparations were dosed cumulatively with the test compound (10⁻⁸-2x10⁻⁵M), and finally a maximum relaxation achieved by addition of 10⁻³M isoprenaline.
# The fall in tension evoked by the test compound was expressed as a percentage of the total relaxation evoked in the presence of 10⁻³M isoprenaline. […]
row,Structure (SMILES),IC50 [µM]
1,"CC(NC(=NC#N)Nc1ccc(C#N)cc1)C(C)(C)C (racemic) [Example 4, (±)-N˝-Cyano-N-4-cyanophenyl-N′-1,2,2-trimethylprop-1-ylquanidine]",3
2,"CC(NC(=S)Nc1ccc(F)cc1)C(C)(C)C (racemic) [Example 3, (±)-N-4-Fluorophenyl-N′-1,2,2-trimethylprop-1-ylthiourea]",5.9
